Experimental data: patent US10308631B2, “Selective anti-cancer compounds” (NATIONAL UNIVERSITY OF SINGAPORE, priority 2015, dated 2019)

Key:
Type in all cases: cell-based, human
[1] = test system: non-transformed normal BJ cells; assay: Immunofluorescence of chromosome alignment, bipolar spindle and spindle poles; conditions: 2.5 μM, 4 h, then MG132 1.5 h
Protocol: (§1) A: is a histogram showing isogenic non-transformed and oncogene-transformed BJ cells stably expressing GFP-tagged Histone H2B as a marker for chromosome segregation, treated with Compound 1 (a131) at 2.5 μM final concentration. Mitotic progression of these cells was monitored every 10 min. More than 100 cells per condition were quantified and classified into 3 groups: no, mild and severe mitotic defects with prolonged mitotic arrest, chromosome mis-segregation and failure in cytokinesis. […] The bars represent 5 μm in length. C: is a histogram showing quantification of defects in spindle formation and chromosome alignments (n>100 cells per condition).
(§2) To investigate why massive chromosome mis-segregation occurs in oncogene-transformed BJ cells when treated with Compound 1, but not in non-transformed BJ cells, the effects of Compound 1 were studied on isogenic BJ cell lines (transformed and non-transformed) that stably express GFP-Histone H2B. Cells cultured in accordance with Biology Example 3 were treated with Compound 1 at 2.5 μM final concentration for 4 h followed by MG132 for another 1.5 h to allow chromosome alignment. […]

[2] = test system: oncogene-transformed BJ cells; assay: as above; conditions: 2.5 μM, 4 h, then MG132 1.5 h
Protocol: as §1, §2

[3] = test system: p53 and p21 in non-transformed BJ cells; assay: Immunoblot analysis of p53 and p21; conditions: 2.5 and 5 μM, 24 h or 48 h
Protocol: (§3) A: is output from a FACS analysis of isogenic-non-transformed, without (panels a-c) (WT) or with (panels d-f) shRNA-mediated knockdown of p53 (p53KD), and oncogene-transformed BJ cells (panels g-i), each treated with 0, 5 or 2.5 μM Compound 1 (a131) for 24 h. Cells were doubly stained with PI (horizontal axis) and BrdU (vertical axis). The BrdU-positive population in panels a-c are indicated as arrows. B: is a diagrammatic representation of an immunoblot analysis showing isogenic non-transformed (normal) and oncogene-transformed BJ cells (transformed) treated with Compound 1 (a131) at 0, 2.5 or 5 μM for 24 h or 48 h. Cells were harvested and total lysates were analysed by detecting p53 and p21. Antibodies raised against β-actin were used as an internal loading control. C and D are histograms showing the percentage of bromodeoxyuracil (BrdU)-positive non-transformed (normal) BJ cells. C: Cells were treated with Group 1 Compound 1 (a131) at 2.5 and 5 μM, Compound 23 (b36) at 2.5 and 5 μM, and Compound 21 (b35) at 5 μM, and Group 2 Compound 25 (a166) at 2.5 and 5 μM, for 24 h. Cells were doubly stained with propidium iodide (PI) and BrdU, and subjected to FACS analysis. The BrdU-positive population are plotted as bars. […]

[4] = test system: p53 and p21 in oncogene-transformed BJ cells; assay: Immunoblot analysis of p53 and p21; conditions: 2.5 and 5 μM, 24 h or 48 h
Protocol: as §3

[5] = test system: non-transformed normal BJ cells; assay: Time-lapsed live cell analysis of mitotic progression (GFP-Histone H2B); conditions: 2.5 μM, monitored every 10 min
Protocol: as §1
(§4) Isogenic non-transformed and oncogene-transformed BJ cells stably expressing GFP-tagged Histone H2B as a marker for chromosome segregation were treated with Compound 1 at 2.5 μM final concentration. Mitotic progression of these cells was monitored every 10 min and images were acquired using a Super Resolution Microscope (Nikon) equipped with an iXon EM+ 885 EMCCD camera (Andor) mounted on a Nikon Eclipse Ti-E inverted microscope with a CFI Apo objective and a Stage Top Incubation with Digital CO2 mixer (Tokai). The images were processed with the NIS-Elements AR software. […]

[6] = test system: oncogene-transformed BJ cells; assay: as above; conditions: 2.5 μM, monitored every 10 min
Protocol: as §1, §4

N#C/C(=C\c1cccc2cnccc12)c1c[nH]c2ccccc12 [Compound 1, (Z)-2-(1H-indol-3-yl)-3-(isoquinolin-5-yl)acrylonitrile]
chromosome alignment and spindle formation [1]: did not show marked defects in chromosome alignment | chromosome alignment and spindle formation [2]: massively misaligned chromosomes with the formation of multipolar spindles | protein levels of p53 and p21 [3]: increased protein levels of p53 | protein expression levels of p53 and p21 [4]: did not alter the protein expression levels of p53 and p21 | mitotic defects [5]: only induced a short period of mitotic arrest with mild mitotic defects | mitotic defects [6]: severe mitotic defects with prolonged mitotic arrest, chromosome mis-segregations and failure in cytokinesis
